Data published in patent publication US20260191845A1, “PYRIDINE-2-THIOL 1-OXIDE DERIVATIVES AND THEIR USE FOR TREATMENT OF MAMMALIAN INFECTIONS CAUSED BY MYCOBACTERIUM OR FUNGI” (priority 2022, published 2026).

Experiments:
[1] = system: M. abscessus MDR clinical isolate 1; assay: REMA MIC90, broad spectrum of microorganisms; format: cell-based; conditions: Mycobacteroides abscessus, M. abscessus MDR clinical isolate 1, resistant to amikacin, clarithromycin, doxycycline, bedaquiline and others, read-out: MIC to Compound 2
Experimental: (§1) To determine the in vitro activity of compounds (MIC90) against Mycobacterium abscessus ATCC 19977, the resazurin reduction microplate assays (REMA) is performed. Briefly, serial 2-fold dilutions of drug are prepared in 96-well microtiter plates (Fluoronunc, Thermo Fisher, Waltham, MA, USA) in 100 μL of Middlebrook 7H9 medium (Difco), supplemented with 10% OADC without addition of Tween 80. Then, M. abscessus log-phase cultures were diluted (OD600=0.02) and added in the 96-well microtiter plate. Growth controls containing no compound and sterile controls without inoculum are also included. Also, a compound known to be active against M. abscessus growth is included as positive control. After 1 day of incubation at 37° C., 10 μL of resazurin (0.025% w/v) is added to each well, and bacterial viability is assessed after a further 24 h of incubation using a Fluoroskan™ Microplate Fluorometer (Thermo Fisher Scientific, Waltham, MA, USA; excitation=544 nm, emission=590 nm). Bacterial viability was calculated as a percentage of resazurin turnover in the absence of compound (MIC90). […]. Results are expressed as the average of at least three independent replicates and presented on the following Table 1.
(§2) By using the same procedure, the compound according to Example B (compound 2) was tested on broad spectrum of microorganisms and the corresponding results are presented in the below Table 2.

[2] = system: M. abscessus MDR clinical isolate 2 (from CF patient); assay: REMA MIC90, broad spectrum of microorganisms; format: cell-based; conditions: Mycobacteroides abscessus, resistant to amikacin, amoxicillin, imipenem, linezolid and others, read-out: MIC to Compound 2
Experimental: as §1, §2

[3] = system: M. abscessus clinical isolate n. 7; assay: REMA MIC90, broad spectrum of microorganisms; format: cell-based; conditions: Mycobacteroides abscessus, M. abscessus clinical isolate n. 7, resistant to clarithromycin, amikacin, moxifloxacin, doxycycline, read-out: MIC to Compound 2
Experimental: as §1, §2

[4] = system: M. abscessus clinical isolate n. 8; assay: REMA MIC90, broad spectrum of microorganisms; format: cell-based; conditions: Mycobacteroides abscessus, M. abscessus clinical isolate n. 8, resistant to moxifloxacin, doxycycline, read-out: MIC to Compound 2
Experimental: as §1, §2

[5] = system: M. abscessus clinical isolate n. 9; assay: REMA MIC90, broad spectrum of microorganisms; format: cell-based; conditions: Mycobacteroides abscessus, M. abscessus clinical isolate n. 9, resistant to clarithromycin, moxifloxacin, doxycycline, read-out: MIC to Compound 2
Experimental: as §1, §2

[6] = system: M. avium clinical isolate n. 2; assay: REMA MIC90, broad spectrum of microorganisms; format: cell-based; conditions: Mycobacterium avium, M. avium clinical isolate n. 2, resistant to linezolid, read-out: MIC to Compound 2
Experimental: as §1, §2

[7] = system: M. avium clinical isolate n. 3; assay: REMA MIC90, broad spectrum of microorganisms; format: cell-based; conditions: Mycobacterium avium, M. avium clinical isolate n. 3, resistant to linezolid, read-out: MIC to Compound 2
Experimental: as §1, §2

[8] = system: M. avium clinical isolate n. 4; assay: REMA MIC90, broad spectrum of microorganisms; format: cell-based; conditions: Mycobacterium avium, M. avium clinical isolate n. 4, resistant to linezolid and Moxifloxacin, read-out: MIC to Compound 2
Experimental: as §1, §2

[9] = system: MRSA Staphylococcus aureus clinical isolate; assay: REMA MIC90, broad spectrum of microorganisms; format: cell-based; conditions: read-out: MIC to Compound 2
Experimental: as §1, §2

[10] = system: M. avium subsp. avium Chester ATCC15769; assay: REMA MIC90, broad spectrum of microorganisms; format: cell-based; conditions: Mycobacterium avium, M. avium subsp. avium Chester ATCC15769, Wild-type, read-out: MIC to Compound 2
M. tuberculosis H37Rv = assay: REMA MIC90, broad spectrum of microorganisms; format: cell-based; conditions: Mycobacterium tuberculosis, Wild-type, read-out: MIC to Compound 2
M. smegmatis mc2155 = assay: REMA MIC90, broad spectrum of microorganisms; format: cell-based; conditions: Mycolicibacterium smegmatis, M. smegmatis mc2155, Wild-type, read-out: MIC to Compound 2
[11] = Pharmacokinetic study in mice; format: in vivo, Balb/C male mice; conditions: 100 mg/kg intragastric, saline solution
Experimental: The pharmacokinetics of the compound 2 has been studied white Balb/C male mice. 27 animals with average body weight of 20 g were selected for the study. The animals were kept on standard vivarium ration with dry pelleted feed before the experiment. All the test animals had free access to water but were deprived of food for 1 hour before administration of the compound. This regimen was continued for another hour after the administration.
Compound in a dose of 100 mg/kg of body weight was administered as 0.5 mL of saline solution by intragastric intubation.
The animals were euthanized by decapitation for blood and brain sampling. Blood and brain samples (3 animals per time point) were taken at 15, 30, 60, 120, 240, 360 1440 min after administration for pharmacokinetic evaluation. Blood was collected in heparinized tubes and centrifuged at 3500 RPM. Plasma was separated from formed elements and immediately frozen at −20° C. in freezer. This storage continued before transferring of plasma for analysis. Serum from 6 untreated animals was used as control and for equipment calibration with compound. Mice brain was immediately frozen at −120° C.

[12] = system: Sporobolomyces salmonicolor; assay: Antifungal agar well diffusion assay; conditions: 20 μL water solution in 4 mm well
Experimental: (§3) The well diffusion test was performed using Casitone agar. The inoculum used was prepared using the Candida or Aspergillus strains from a 24-hour culture on Sabouraud dextrose agar, a suspension was made in a sterile saline solution (0.85%). The turbidity of the suspension was adjusted with a spectrophotometer at 530 nm to obtain a final concentration to match that of a 0.5 McFarland standard (0.5-2.5×10^3). 20 mL of Bacto-casitone were melted, cooled to 55° C. and then inoculated with 1 mL of the organism suspension. The inoculated agar was poured into the assay plate (9 cm in diameter) and allowed to cool down on a leveled surface.

Candida albicans H8 = assay: Antifungal agar well diffusion assay; conditions: 20 μL water solution in 4 mm well
Experimental: as §3

CCOC(=O)c1ccc([S-])[n+]([O-])c1.[Na+] [Compound 2, Sodium 5-(ethoxycarbonyl)pyridine-2-thiolate 1-oxide]
MIC [1]: 500 µg/mL
MIC [2]: 500 µg/mL
MIC [3]: 500 µg/mL
MIC [4]: 500 µg/mL
MIC [5]: 500 µg/mL
MIC [6]: 500 µg/mL
MIC [7]: 500 µg/mL
MIC [8]: 500 µg/mL
MIC [9]: 8000 µg/mL
MIC [10]: 500 µg/mL
MIC (M. tuberculosis H37Rv): 25 µg/mL
MIC (M. smegmatis mc2155): 1000 µg/mL
Bioavailability [11]: high bioavailability
Inhibition Zone of Test Microorganism [12]: 46 mm
Inhibition Zone of Test Microorganism (Candida albicans H8): 53 mm
